Patent US20240207369A1, “In Vitro Drugs from Prodrugs and Use Thereof” (Brandenburgische Tehnische Universitat Cottbus-Senftenberg, priority 2021, published 2024)

System: human thrombocytes (platelets)
Experiment: ADP-induced platelet aggregation in whole blood, impedance aggregometry (Multiplate Analyzer)
Format: cell-based
Settings: ADP 10 μM final; two-minute pre-incubation of the metabolite in blood of an apparently healthy subject; final metabolite concentration 0.31 mg per 1 mL; approx. 73% purity; FIG. 2
Procedure: Example of embodiment of the effect of a metabolite produced via peroxygenase on human platelets (blood platelets).
The metabolite is present as a powder (approx. 4 mg) in a dark container and is stored in a freezer at at least −80° C. until the solution is prepared. On the day of use, the drug is dissolved in 500 μl of a suitable sterile solvent (here: phosphate-buffered saline, PBS). Powder and solvent are mixed rigorously. The complete dissolution of the powder is to be visually checked. The mixture is stored on ice or at approx. 0° C. until use.
To test the functionality of the agent, the aggregation of human thrombocytes (platelets) in whole blood is determined by impedance aggregometry (Paniccia, R.; Antonucci, E.; Maggini, N.; Romano, E.; Gori, A. M.; Marcucci, R.; Prisco, D.; Abbate, R. Assessment of Platelet Function on Whole Blood by Multiple Electrode Aggregometry in High-Risk Patients with Coronary Artery Disease Receiving Antiplatelet Therapy. American journal of clinical pathology 2009, 131, 834-42, doi:10.1309/AJCPTE3K1SGAPOIZ). For the test, approximately 5 ml of fresh whole blood is collected from a visible vein at the elbow (cubital vein) of a subject by an appropriately trained person using appropriate sterile blood collection equipment. The blood is collected into a collection vessel designed for this purpose (e.g. Sarstedt Monovette, Sarstedt, Numbrecht, Germany). […]

COC(=O)[C@H](c1ccccc1Cl)N1CCC(S)C(=CC(=O)O)C1 (stereo partly drawn) [metabolite, 2-(1-((S)-1-(2-chlorophenyl)-2-methoxy-2-oxoethyl)-4-mercaptopiperidin-3-ylidene)acetic acid]
ADP-induced platelet aggregation: reduction of ADP-induced platelet aggregation
